Literature values in patent publication US10213411B2, “Use of prodrugs of fumarates in treating heart failure diseases” (priority 2015, dated 2019).
Counter-ions that a name gives are not always drawn.

Tests used:
[1] = test system: central nervous system (CNS) inflammation; settings: preclinical
[2] = test system: central nervous system (CNS) inflammation; settings: preclinical; remark: listed apart in the source
[3] = test system: astrogliosis and microglial activations
[4] = healthy subjects, compared by MMF plasma levels

Row | dose comparable to 240 mg DMF (Tecfidera) by plasma levels of MMF [4] | Structure (SMILES) | CNS inflammation in murine EAE [1] | CNS inflammation in rat EAE [2] | astrogliosis and microglial activations associated with EAE [3]
1 | – | COC(=O)/C=C/C(=O)OC [DMF, Dimethyl fumarate] | inhibit central nervous system (CNS) inflammation | inhibit central nervous system (CNS) inflammation | inhibit astrogliosis and microglial activations
2 | 420 mg | COC(=O)/C=C/C(=O)OCCN1C(=O)CCC1=O [ALKS 8700] | – | – | –
